Measured values: patent US5182113A, “Factor Xa inibitor from leech and pharmaceutical compositions containing same” (Bio-Technology General Corp., priority 1988, dated 1993)
“Also recorded” adds a separate entry of the source. Blank lines part the entries; values can stand above or below the molecule they belong to.

Columns and labels:
F.Xa = conditions: substrate affinity; cited from earlier work
bovine thrombin = experiment: Inhibition of bovine thrombin activity on chromogenic substrate; type: biochemical; conditions: result in words
Experimental: (§1) Regarding the methods, synthetic substrates having a chromogenic end group such as pNA (para- nitroanilide) are preferably used, enabling easy monitoring of the progress of the coagulation by spectrophotometer methods. […] The reactions were monitored at 405 nm in a spectrophotometer connected to a computer and the kinetic parameter were calculated from the appropriate extinction coefficients by a Jackson-Labanowski linear regression program. The measurements were carried out in disposable polystyrene cuvettes at pH of 7.8 and a temperature of 25° C.

bovine Factor Xa [1] = experiment: Inhibition of bovine Xa activity on chromogenic substrate; type: biochemical; conditions: result in words
Experimental: as §1

bovine F.Xa = experiment: Affinity binding to bovine F.Xa immobilized on Affi-Gel 10; conditions: leech saliva passed through column, pH 7.9
Experimental: The inhibitor/modulator of the present invention may be isolated from the saliva by adsorption on an Affi-Gel column on which bovine F.Xa is fixed and subsequent elution with acetic acid. Hirudin was not adsorbed on said gel. Affi-Gel 10 is used, which is a derivatized ross-linked agarose containing a 10-atom spacer arm esterified to N-hydroxysuccinimide. The capacity of this gel is 10 micromoles/ml.
1. Coupling. To 1ml washed Affi-Gel 10 in a mini-column were added 2ml of a dialyzed BXa solution (40 nmoles) in 0.05 M Hepes/0.1 M NaCl buffer pH 7.5. The column was shaken for 2 h at room temp. The supernatant was then run off the column, which was not allowed to dry. Ninety four percent of the BXa load was bound to the gel.
3. Affinity binding of XaM. Leech saliva (40 ml, 305 pmoles XaM) was adjusted to pH 7.9 by adding 1% v/v 1M Tris pH 8 and was passed through the column. Ninety two percent of the XaM was bound to the gel. Hirudin was not bound.

bovine Factor Xa [2] = conditions: literature (Tuszynski, Gasic and Gasic 1987); cited from earlier work

Molecule: N=C(N)NCCC[C@H](NC(=O)[C@@H]1CCCCN1C(=O)[C@H](N)Cc1ccccc1)C(=O)Nc1ccc([N+](=O)[O-])cc1 [S2238, D-Phe-Pipecolyl-L-Arg-pNa]
Km (F.Xa): 46.9 µM

adsorption on Affi-Gel with fixed bovine F.Xa (bovine F.Xa): not adsorbed; also recorded: not bound
Molecule: hirudin
inhibition of thrombin (bovine thrombin): inhibits thrombin
inhibition of bovine F.Xa (bovine Factor Xa [1]): does not inhibit bovine F.Xa

B1: antistasin (protein, UniProt P15358 18-136, looked up)
Antistasin: QGPFGPGCEEAGCPEGSACNIITDRCTCSGVRCRMHCPHGFQRSRYGCEFCKCRLEPMKATCDISECPEGMMCSRLTNKCDCKIDINCRKTCPNGLKRDKLGCEYCECRPKRKLIPRLS
remaining BXa activity at which the dose-response curve flattens out (bovine Factor Xa [2]): about 50%
